The values that follow come from patent US8344145B2, “Salts of 2-substituted quinolines” (priority 2008, dated 2013).

Like-named read-outs stand apart in the source and are kept apart here.

A short description of series [1]: Hygroscopicity: water vapour sorption/desorption isotherm (DVS-1000). Format: physicochemical. The conditions noted are these: 25° C./60% relative humidity, in comparison with weight equilibrated at 0% relative humidity at 25° C. As for the experimental part:
The hygroscopicity of the 2-(n-propyl)quinoline camsylate crystals is evaluated by studying the sorption/desorption isotherm of water in the vapor phase on a device of DVS-1000 type sold by SMS.
The sample, analyzed in a quartz pan with a specimen size of the order of 10 mg, is subjected to two cycles of variation in relative humidity (RH) which are linked together continuously. Each cycle comprises two stages, adsorption and then desorption of water, during which the relative humidity in the measuring chamber is increased and then decreased gradually according to the conditions described in table 2.
The sample is first dried under a stream of filtered dry air until its weight has stabilized. The stages of adsorption and of desorption are then made successively. The carrier gas used to maintain the relative humidity at a set percentage is air dried upstream of the device and delivered at a flow rate of 100 ml/min. During the progression of the program, the temperature in the measuring chamber is maintained at 25° C.

The subject of series [2] is female CD-1 mice. The conditions noted are these: 5 animals. On the procedure: (§1) 250 mg of carboxymethylcellulose are dissolved in 50 ml of a 5% glucose solution. 5 ml aliquots containing 0.5% of Tween 80 are emulsified with the quinoline salts (final concentrations at 0.4 mg/ml, 4 mg/ml and 40 mg/ml). The emulsions are subsequently homogenized. The emulsions are administered by force feeding in a single dose to four groups of five female CD-1 mice at the concentrations of 10 mg/kg, 100 mg/kg and 1000 mg/kg and without compounds (control group). The control group receives a glucose-comprising emulsion containing 0.5% of carboxymethyl-cellulose (CMC) and […]. The behavior of the animals is observed and the number of deaths is counted after 1 min, 15 min, 30 min, 1 h, 4 h, 8 h and each day for 14 days. On the final day, a blood sample is taken. Biochemical analyses are carried out in order to evaluate the nephrotoxicity and the hepatotoxicity, the levels of creatinine, of aspartate aminotransferase (ASAT), of alanine aminotransferase (ALAI) and of cholesterol being quantitatively determined.

Series [3] is described as follows: Chemical stability of solutions in five solvents, HPLC daily for 9 days. The note with it: 200 μg/ml in methanol, pH 7 buffer, camphorsulfonic acid pH 2, DMSO, CMC 0.5%/Tween 80 0.5%, 4° C., ambient with light, ambient without light.
Experimental: The quinoline salts are dissolved at a concentration of 200 μg/ml in five different solvents: methanol, an aqueous solution buffered at pH 7, an aqueous camphorsulfonic acid solution at pH 2, dimethyl sulfoxide (DMSO) and an aqueous solution comprising a mixture of carboxymethylcellulose at 0.5% and Tween 80 at 0.5%.
Each preparation is divided into three parts which are stored under different conditions of temperature and of luminosity: at 4° C., at ambient temperature under the influence of light and at ambient temperature with the exclusion of light. The samples are diluted (1:20) and then analyzed by high performance liquid chromotography (HPLC) daily for 9 days.
Use was made, in carrying out the high performance liquid chromotography analysis, of a Waters LC system comprising a model 600 pump with inline degassing and, as detector, a 996 photodiode detector device. The acquisition of the data was carried out by the use of the Empower® program (Waters, France). The column used was a Symmetry Shield RP18, 3.5 μm 4.6×150 mm. […] The UV absorbance spectra were recorded at between 210 and 400 nm. The chromatogram of the propyl salt was recorded at 233 nm and that of the alcohol derivative at 249 nm.
In series [4] the test system is female CD-1 mice. The series is described as follows: Acute toxicity: blood biochemical parameters on the final day (nephrotoxicity, hepatotoxicity). The note with it: blood sample on final day (day 14). On the procedure:
as §1

On to `CC1(C)C2CCC1(CS(=O)(=O)O)C(=O)C2.CCCc1ccc2ccccc2n1` (centres unmarked) [Camphorsulfonate salt of 2-(n-propyl)quinoline], for which the “increase in weight (water sorption)” value in series [1] is “less than 2%”. The acute toxicity observation result in series [2] (single dose 10 mg/kg oral route) is given as “absence of toxicity”; in series [2] (single dose 100 mg/kg oral route), “absence of toxicity”; in series [2] (single dose 1 g/kg oral route, t4 h) it was “t4 h = absence of toxicity”. Moreover, in series [2] (single dose 1 g/kg oral route, t15 min), the “mice showing signs of lethargy” value was “t15 min = 3 mice showed”. Besides, in series [2] (single dose 1 g/kg oral route, t1 h), the lethargic mice result is given as “t1 h = 2 lethargic mice”. The “chemical stability in solution” value in series [3] (listed as 2-(n-propyl)quinoline in the form of the camphorsulfonic acid salt) was “chemical stability compatible with the development of a medicament”; in series [3] (listed as propyl salt) it was “stable whatever the conditions tested”. Besides, the ALAT came to 215 ± 123 IU/l in series [4] (dose 10 mg/kg oral), 168 ± 67 IU/l in series [4] (dose 100 mg/kg oral) and 199 ± 89 IU/l in series [4] (dose 1 g/kg oral). Moreover, the ASAT was found to be 410 ± 57 IU/l in series [4] (dose 10 mg/kg oral), 515 ± 72 IU/l in series [4] (dose 100 mg/kg oral) and 422 ± 187 IU/l in series [4] (dose 1 g/kg oral). For the same compound, the results for the Cholesterol in series [4] (dose 10 mg/kg oral), in series [4] (dose 100 mg/kg oral) and in series [4] (dose 1 g/kg oral) were 3.9 ± 0.3 mM, 4.1 ± 0.5 mM and 3.8 ± 0.4 mM, respectively. Also, the Creatinine in series [4] (dose 10 mg/kg oral), in series [4] (dose 100 mg/kg oral) and in series [4] (dose 1 g/kg oral) was <18 µM in each case.
